Patent publication US8779144B2, “Bicycloheteroaryl compounds as P2X7 modulators and uses thereof” (Evotec (US) Inc., priority 2006, dated 2014)

Tested on: IL-1β release from THP-1 cells
Test: IL-1β release assay in differentiated THP-1 cells stimulated with BzATP (ELISA)
Assay type: cell-based
Settings: Homo sapiens; for inhibition at 0.3 µM: 0.3 uM compound, BzATP 250 uM, read-out: IL-1β % Inhib. @ 0.3 uM.; for IC50: released IL-1β as in Example 9, four parameter logistic fit, read-out: IL-Iβ IC50
Experimental: THP-1 cells (ATCC Cat #285-IF-100) are plated in 96 well plates at a concentration of 200,000 cells per well and allowed to differentiate in RPMI-1640 media (ATCC Cat #30-2001) containing 10% FBS, 100 IU/mL penicillin, 100 ug/mL streptomycin, 100 ng/mL LPS and 100 ng/mL IFN-γ for 16 hours. Following differentiation, the cells are treated for an additional 2 hours in RPMI-1640 media containing 100 IU/mL penicillin, 100 ug/mL streptomycin and fresh LPS at 100 ng/mL. The cells are then pretreated for 30 minutes with the compound of interest at the appropriate concentration in RPMI media containing 100 IU/mL penicillin, 100 ug/mL streptomycin. Following the pretreatment 2′,3′-O-(4-benzoylbenzoyl)-adenosine 5′-triphosphate (Sigma Aldrich Cat # B6396) is added to a final concentration of 250 uM and the cells are incubated for an additional 45 minutes. 30 uL of cell supernatant is then collected and IL-113 levels determined via ELISA (R&D systems Cat. # HSLB50) according to manufacturer's recommendations using the Tecan Safire plate reader. Background adjusted IL-1β levels of drug treated and non-treated cells are used to calculate the percent inhibition. […]
The compounds set forth in Table 1 were tested for activity in a cellular model as described herein. Specifically, cells were pretreated with differing amounts of the compound under test and released IL-1β determined as in Example 9, above. Measurements were made and IC50 values, presented in Table 2, below, were determined by fitting the data to a four parameter logistic equation using GraphPad Prism software (GraphPad Software, Inc). The equation may be expressed by the following formula: Y=Bottom+(Top−Bottom)/(1+10^((LogEC50−X)*HillSlope)) Where X is the logarithm of concentration, Y is the response and Y starts at Bottom and goes to Top with a sigmoid shape.

| IC50 [nM] | Structure (SMILES) | inhibition at 0.3 µM [%] |
| --- | --- | --- |
| 42 | O=C(NCC1(O)CCCCCC1)c1cccc2c(=O)n(Cc3ccc(F)cc3)ccc12 [Compound 2031, 2-(4-Fluoro-benzyl)-1-oxo-1,2-dihydro-isoquinoline-5-carboxylic acid (1-hydroxy-cycloheptylmethyl)-amide] | > 76 |
| 11.6 | O=C(NCC1CCCCCC1)c1cccc2c(=O)n(Cc3ccc4c(c3)OCCO4)ccc12 [Compound 2036] | > 76 |
| 606 | CC1(C)OCC(Cn2ccc3c(C(=O)NCC4CCCCCC4)cccc3c2=O)O1 (centres unmarked) [Compound 2038] | 0 to 25 |
| 145 | CC1(C)CCCC(O)(CNC(=O)c2cccc3c(=O)n(CC(O)CO)ccc23)C1 (centres unmarked) [Compound 2042] | 51 to 75 |
| > 1000 | Cn1ccc2c(C(=O)NCC3(O)CCCC(C)(C)C3)cccc2c1=O (centres unmarked) [Compound 2045] | 0 to 25 |
| 122 | CC(C(N)=O)n1ccc2c(C(=O)NCC3CCCCC3)cccc2c1=O (centres unmarked) [Compound 2049] | > 76 |
| 654 | CC(C(N)=O)n1ccc2c(C(=O)NCC3CCCCCC3)cccc2c1=O (centres unmarked) [Compound 2050] | 0 to 25 |
| 256 | CC1(C)CCCC(O)(CNC(=O)c2cccc3c(=O)n(CCO)ccc23)C1 (centres unmarked) [Compound 2051] | 51 to 75 |
| 694 | O=C(NCC1CCCCC1)c1cccc2c(=O)n(CCO)ccc12 [Compound 2052] | 0 to 25 |
| 40.4 | O=C(NCc1ccc(Cl)c(C(F)(F)F)c1)c1cccc2c(=O)n(C(CO)CO)ccc12 [Compound 2053, 2-(2-Hydroxy-1-hydroxymethyl-ethyl)-1-oxo-1,2-dihydro-isoquinoline-5-carboxylic acid 4-chloro-3-trifluoromethyl-benzylamide] | > 76 |
| 269 | O=C(NCC1CCCCC1)c1cccc2c(=O)n(C(CO)CO)ccc12 [Compound 2055] | 51 to 75 |
| 26.1 | C[C@H](C(N)=O)n1ccc2c(C(=O)NCC3(O)CCCCCC3)cccc2c1=O [Compound 2057] | > 76 |
| 214 | C[C@@H](C(N)=O)n1ccc2c(C(=O)NCc3ccc(Cl)c(Cl)c3)cccc2c1=O [Compound 2061] | 51 to 75 |
| 0.44 | C[C@@H](C(N)=O)n1ccc2c(C(=O)NCC34CC5CC(CC(C5)C3)C4)cccc2c1=O [Compound 2065, 2-((S)-1-Carbamoyl-ethyl)-1-oxo-1,2-dihydro-isoquinoline-5-carboxylic acid (adamantan-1-ylmethyl)-amide] | > 76 |
| 6.91 | C[C@H](CO)n1ccc2c(C(=O)NCC3CCCCCC3)cccc2c1=O [Compound 2069, 2-((R)-2-Hydroxy-1-methyl-ethyl)-1-oxo-1,2-dihydro-isoquinoline-5-carboxylic acid cycloheptylmethyl-amide] | > 76 |
| 16.5 | O=C(NCC1CCCCCC1)c1cccc2c(=O)n(C3CC3)ccc12 [Compound 2070, 2-Cyclopropyl-1-oxo-1,2-dihydro-isoquinoline-5-carboxylic acid cycloheptylmethyl-amide] | > 76 |
| 754 | O=C(NCc1ccc(C(F)(F)F)cc1)c1cccc2c(=O)n(C3CC3)ccc12 [Compound 2071] | 0 to 25 |
| 59.2 | O=C(NCc1ccc(Cl)c(Cl)c1)c1cccc2c(=O)n(C3CC3)ccc12 [Compound 2072, 2-Cyclopropyl-1-oxo-1,2-dihydro-isoquinoline-5-carboxylic acid 3,4-dichloro-benzylamide] | > 76 |
| 107 | O=C(NCc1ccc(Cl)c(F)c1)c1cccc2c(=O)n(C3CC3)ccc12 [Compound 2074] | > 76 |

The remaining lines, values behind:

| Structure (SMILES) | IC50 [nM] | inhibition at 0.3 µM [%] |
| --- | --- | --- |
| O=C(NCCc1ccccc1Cl)c1ncnc2c1CCN(Cc1ccccc1)C2 [Compound 2001] | > 1000 | 0 to 25 |
| O=C(NCC1CCCCC1)c1ncnc2c1CCNC2 [Compound 2002, 5,6,7,8-Tetrahydro-pyrido[3,4-d]pyrimidine-4-carboxylic acid cyclohexylmethyl-amide] |  | 0 to 25 |
| O=C(NCCc1ccccc1)c1ncnc2c1CCNC2 [Compound 2003] |  | 0 to 25 |
| O=C(NCC1CCCCC1)c1ncnc2c1CCN(Cc1ccccc1)C2 [Compound 2004] |  | 0 to 25 |
| O=C(NCC1CCCCC1)c1ncnc2c1CCN(Cc1cccnc1)C2 [Compound 2006] |  | 0 to 25 |
| O=C(NCC1CCCCC1)c1ncnc2c1CCN(Cc1ccncc1)C2 [Compound 2007] |  | 0 to 25 |
| O=C(NCC1CCCCC1)c1ncnc2c1CCN(Cc1ccccc1Cl)C2 [Compound 2008] |  | 0 to 25 |
| O=C(NCC1CCCCC1)c1ncnc2c1CCN(Cc1ccc(Cl)cc1)C2 [Compound 2009] |  | 0 to 25 |
| O=C(NCC1CCCCC1)c1ncnc2c1CCN(Cc1ccccn1)C2 [Compound 2010] |  | 0 to 25 |
| O=C(NCC1CCCCC1)c1ncnc2c1CCN(Cc1cccc(Cl)c1)C2 [Compound 2011] |  | 0 to 25 |
| COc1ccc(CN2CCc3c(ncnc3C(=O)NCC3CCCCC3)C2)cc1 [Compound 2012] |  | 0 to 25 |
| Cc1ccc(CN2CCc3c(ncnc3C(=O)NCC3CCCCC3)C2)cc1 [Compound 2013] |  | 0 to 25 |
| CS(=O)(=O)c1ccc(CN2CCc3c(ncnc3C(=O)NCC3CCCCC3)C2)cc1 [Compound 2014] |  | 0 to 25 |
| CC(=O)Nc1ccc(CN2CCc3c(ncnc3C(=O)NCC3CCCCC3)C2)cc1 [Compound 2015] |  | 0 to 25 |
| O=C(NCC1(O)CCCCCC1)c1ncnc2c1CCN(Cc1ccccc1)C2 [Compound 2016] |  | 0 to 25 |
| CC1(C)CCCC(O)(CNC(=O)c2ncnc3c2CCN(Cc2ccccc2)C3)C1 (centres unmarked) [Compound 2017] |  | 0 to 25 |

| Structure (SMILES) | IC50 [nM] | inhibition at 0.3 µM [%] |
| --- | --- | --- |
| Cc1ccc(C2(CNC(=O)c3ncnc4c3CCN(Cc3ccccc3)C4)CCCCC2)cc1 [Compound 2018] |  | 0 to 25 |
| O=C(NCC12CC3CC(CC(C3)C1)C2)c1ncnc2c1CCN(Cc1ccccc1Cl)C2 [Compound 2025] |  | 26 to 50 |
| O=C(NCC1CCCCCC1)c1cccc2c1CCN(C(CO)CO)C2=O [Compound 2037] | 138 | 51 to 75 |
| O=C(NCC1CCCCCC1)c1cccc2c(=O)n(CC(O)CO)ccc12 (centres unmarked) [Compound 2039, 2-(2,3-Dihydroxy-propyl)-1-oxo-1,2-dihydro-isoquinoline-5-carboxylic acid cycloheptylmethyl-amide] | 257 | 51 to 75 |
| COCC(O)Cn1ccc2c(C(=O)NCC3CCCCCC3)cccc2c1=O (centres unmarked) [Compound 2044] | > 1000 | 0 to 25 |
| COCC(O)Cn1ccc2c(C(=O)NCC3(O)CCCC(C)(C)C3)cccc2c1=O (centres unmarked) [Compound 2046] | > 1000 | 0 to 25 |
| CC1(C)CC(C)(C)CC(O)(CNC(=O)c2cccc3c(=O)n(C(CO)CO)ccc23)C1 [Compound 2054] | 233 | 51 to 75 |
| C[C@@H](C(N)=O)n1ccc2c(C(=O)NCC3(O)CCCCCC3)cccc2c1=O [Compound 2056] | 506 | 26 to 50 |
| C[C@H](C(N)=O)n1ccc2c(C(=O)NCc3ccc(Cl)c(C(F)(F)F)c3)cccc2c1=O [Compound 2058, 2-((R)-1-Carbamoyl-ethyl)-1-oxo-1,2-dihydro-isoquinoline-5-carboxylic acid 4-chloro-3-trifluoromethyl-benzylamide] | 21 | > 76 |
| C[C@@H](C(N)=O)n1ccc2c(C(=O)NCc3ccc(Cl)c(C(F)(F)F)c3)cccc2c1=O [Compound 2059, 2-((S)-1-Carbamoyl-ethyl)-1-oxo-1,2-dihydro-isoquinoline-5-carboxylic acid 4-chloro-3-trifluoromethyl-benzylamide] | 77.4 | > 76 |
| C[C@H](C(N)=O)n1ccc2c(C(=O)NCc3ccc(Cl)c(Cl)c3)cccc2c1=O [Compound 2060] | 38.2 | > 76 |
| C[C@H](NC(=O)c1cccc2c(=O)n([C@@H](C)C(N)=O)ccc12)c1ccc(Cl)cc1 [Compound 2066] | > 1000 | 0 to 25 |
| C[C@@H](NC(=O)c1cccc2c(=O)n([C@@H](C)C(N)=O)ccc12)c1ccc(Cl)cc1 [Compound 2067] | > 1000 | 0 to 25 |
| C[C@H](CO)n1ccc2c(C(=O)NCc3ccc(C(F)(F)F)cc3)cccc2c1=O [Compound 2068] | 212 | 51 to 75 |
| O=C(NCc1ccc(F)c(Cl)c1)c1cccc2c(=O)n(C3CC3)ccc12 [Compound 2073] | 152 | > 76 |
